Reference: paper PMC4869338 (Malaria Journal, 2016)
Several values for one entry are separate records, joined by “and”; a condition that tells them apart may be missing. Identical values can stand only once. Entries after “also recorded” stand apart in the source; their conditions may differ. Like-named read-outs stand apart in the source and are kept apart here.

Assays:
[1] = humans; cited from earlier work
[2] = cited from earlier work
[3] = test system: CYP2D6; details: cited from earlier work
[4] = biological target: T1, Recombinant human CYP 2D6 (Homo sapiens, UniProt P10635); assay: biochemical
Protocol: The samples were centrifuged at 15,700×g at 4 °C for 10 min, supernatants collected and analysed by liquid chromatography/tandem mass spectrometry (LC–MS/MS).
Analyte peaks were detected and quantified using a TSQ Quantum triple quadrupole mass spectrometer (Thermo Fisher Scientific, Waltham, MA, USA). Mass spectrometry conditions were optimized for each analyte (see Additional file 1 for masses and ion transitions). […] Samples were analysed with electrospray ionization in positive ion mode (source temperature 350 °C) by selected reaction monitoring at a collision pressure of 1.0 mTorr. Analyte peaks were detected and quantified using the Xcalibur software package.

[5] = test system: CYP3A4; details: cited from earlier work
[6] = test system: Plasmodium berghei sporozoites
From the text: Drug suspensions were made and transferred to a 20-ml bottle, drawn into a 1-ml syringe, and delivered via oral feeder (18 gauge) to the designated recipient. […] Both liver and blood stages of P. berghei infections were monitored using the in vivo imaging system (IVIS) and flow cytometry as described in [29].

[7] = test system: CYP2C9; set-up: method as in PMID 18691982; details: cited from earlier work
[8] = test system: CYP1A2; set-up: method as in PMID 18691982; details: cited from earlier work
[9] = test system: CYP2C19; details: cited from earlier work
[10] = cited from earlier work; remark: listed apart in the source
[11] = test system: CYP 2D6; details: in vivo; cited from earlier work
[12] = biological target: T1, Recombinant human CYP 2D6; details: sixty-minute incubation; previously reported; cited from earlier work
[13] = test system: primary human hepatocytes; details: 240-min incubation; previously reported; cited from earlier work
[14] = Mouse oral pharmacokinetics of primaquine and 5,6-orthoquinone with and without fluoxetine; details: mice; oral primaquine 20 mg/kg; fluoxetine 4 mg/kg/day for 3 days
Protocol: Analyte peaks were detected and quantified using a TSQ Quantum triple quadrupole mass spectrometer (Thermo Fisher Scientific, Waltham, MA, USA). […] Chromatographic separations were achieved using a Waters XTerra MS C18 (2.1 × 50 mm, 3.5 μm) column (Milford, MA, USA) with a Phenomenex (4 × 20 mm, 3.5 µm) guard column (Torrance, CA, USA) at a flow rate of 0.35 ml/min. A 7-min linear gradient from 5 to 95 % acetonitrile (0.1 % formic acid) was utilized. Samples were analysed with electrospray ionization in positive ion mode (source temperature 350 °C) by selected reaction monitoring at a collision pressure of 1.0 mTorr. Analyte peaks were detected and quantified using the Xcalibur software package.
Briefly, male, 9–12-weeks old, wild-type, C57BL/6 mice (Taconic Biosciences, Germantown, NY, USA) were used for pharmacokinetic evaluations. On arrival, animals were acclimated for 7 days in quarantine. The animals were housed in a cage maintained at a temperature range of 18–26 °C, 34–68 % relative humidity and a 12-h light/dark cycle. Food and water were provided ad libitum during quarantine and throughout the study. The animals were fed a standard rodent maintenance diet.
Pharmacokinetic studies were performed using oral administration. […] For each timepoint, animals were euthanized and plasma and liver samples collected. […] Supernatant was collected and analysed by LC–MS/MS analyses.

[15] = test system: primary human hepatocytes; assay: Primaquine metabolism in pooled primary human hepatocytes pre-treated with antidepressants; assay type: in vitro ADME; details: antidepressant 10 μM pre-treatment 15 min; primaquine 1 μM; 4-h incubation
Protocol: Cryopreserved, pooled, human, primary hepatocytes were flash thawed in a 37 °C bath for 1 min. One vial of the thawed hepatocytes (5 million cells/vial) was added to 40 ml of pre-warmed thawing buffer, mixed thoroughly by gentle pipetting, and centrifuged at 72×g for 6 min. The supernatant was then aspirated and the pellet resuspended in hepatocyte incubation buffer (InVitroGRO HI media, BioreclamationIVT, Baltimore, MD, USA). The hepatocytes were then seeded onto 12-well culture plates, approximately 7 × 10^5 hepatocytes/ml per well, and incubated in a humidified 5 % CO2/95 % air incubator for 30 min prior to the addition of compounds.
All reactions were stopped by adding an equal volume of acetonitrile. […] The supernatant was collected and 200 μl of sample was loaded on to a 96-well LC–MS/MS plate for analysis. Samples were analysed immediately after sample collection.

T1 sequence (P10635 whole entry): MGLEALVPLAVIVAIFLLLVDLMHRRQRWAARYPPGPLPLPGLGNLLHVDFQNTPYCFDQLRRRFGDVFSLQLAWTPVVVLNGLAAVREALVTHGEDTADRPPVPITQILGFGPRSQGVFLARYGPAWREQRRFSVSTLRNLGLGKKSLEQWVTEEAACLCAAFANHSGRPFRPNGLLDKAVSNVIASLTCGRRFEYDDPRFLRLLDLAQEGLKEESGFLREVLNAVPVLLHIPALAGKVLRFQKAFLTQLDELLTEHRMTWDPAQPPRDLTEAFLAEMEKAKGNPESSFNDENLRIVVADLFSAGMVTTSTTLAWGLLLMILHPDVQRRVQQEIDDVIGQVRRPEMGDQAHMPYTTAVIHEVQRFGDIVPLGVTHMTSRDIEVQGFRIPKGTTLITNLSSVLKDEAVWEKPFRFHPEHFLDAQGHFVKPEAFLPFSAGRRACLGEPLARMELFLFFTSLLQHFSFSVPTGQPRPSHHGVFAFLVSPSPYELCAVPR

Row | Structure (SMILES) | Enzymes involved in biotransformation [2] | Enzymes inhibited by antidepressant: CYP2D6 [3] | IC50 [4] | Enzymes inhibited by antidepressant: CYP3A4 [5] | Enzymes inhibited by antidepressant: CYP2C9 [7] | also measured
1 | CCN(CC)CCCC(C)Nc1ccnc2cc(Cl)ccc12 (stereo not drawn) [chloroquine] |  |  |  |  |  | primaquine exposure on co-administration [1]: significantly higher primaquine exposure
2 | CN(C)CCCC1(c2ccc(F)cc2)OCc2cc(C#N)ccc21 (stereo not drawn) [citalopram] | CYP2C19, CYP2D6, and CYP3A4 | CYP2D6 (weak) | 9.28 µM |  |  | 
3 | CN(C)CC(c1ccc(O)cc1)C1(O)CCCCC1 (stereo not drawn) [desvenlafaxine] |  |  | ~94 µM and 94.3 µM | CYP3A4 (weak) |  | 
4 | CN(C)CCC[C@@]1(c2ccc(F)cc2)OCc2cc(C#N)ccc21 [escitalopram] | CYP2C19, CYP2D6, and CYP3A4 | CYP2D6 (weak) | 7.35 µM |  |  | 
5 | CNCCC(Oc1ccc(C(F)(F)F)cc1)c1ccccc1 (stereo not drawn) [fluoxetine] | CYP2D6, CYP2C9, CYP2C19, and CYP3A4 | strong |  | weak to moderate | moderate | effect of fluoxetine co-administration on primaquine anti-malarial efficacy ([6]; fluoxetine 4 mg/kg/day for 5 days with primaquine 20 mg/kg/day for 3 days): reduced primaquine anti-malarial efficacy; also recorded: negatively impacted primaquine efficacy; Enzymes inhibited by antidepressant: CYP1A2 [8]: weak; Enzymes inhibited by antidepressant: CYP2C19 [9]: CYP2D6 (strong), CYP2C9 (moderate), CYP2C19, (weak to moderate), CYP3A4 (weak to moderate), CYP1A2 (weak); elimination half-life [10]: long; change of CYP 2D6 phenotype of human subjects [11]: from extensive to poor metabolizers
6 | NCCC(Oc1ccc(C(F)(F)F)cc1)c1ccccc1 (stereo not drawn) [nor-fluoxetine] |  |  |  |  |  | CYP 2D6 inhibition by major metabolite of fluoxetine ([3]; no reference given): potent CYP 2D6 inhibitor; elimination half-life ([10]; in vivo): long
7 | Fc1ccc([C@@H]2CCNC[C@H]2COc2ccc3c(c2)OCO3)cc1 [paroxetine] | CYP2D6 and CYP3A4 | CYP2D6 (strong), CYP1A2 (weak), CYP2C9 (weak), CYP2C19 (weak), CYP3A4 (weak) |  | CYP2D6 (strong), CYP1A2 (weak), CYP2C9 (weak), CYP2C19 (weak), CYP3A4 (weak) | CYP2D6 (strong), CYP1A2 (weak), CYP2C9 (weak), CYP2C19 (weak), CYP3A4 (weak) | Enzymes inhibited by antidepressant: CYP1A2 [8]: CYP2D6 (strong), CYP1A2 (weak), CYP2C9 (weak), CYP2C19 (weak), CYP3A4 (weak); Enzymes inhibited by antidepressant: CYP2C19 [9]: CYP2D6 (strong), CYP1A2 (weak), CYP2C9 (weak), CYP2C19 (weak), CYP3A4 (weak)
8 | COc1cc(NC(C)CCCN)c2ncccc2c1 (stereo not drawn) [primaquine] |  |  |  |  |  | blood stage parasitaemia status throughout the 31-day experiment ([6]; flow cytometry, P. berghei infected mice): parasitaemia-free; primaquine metabolism signal by CYP 2D6 [12]: > 80%; primaquine metabolism signal in hepatocytes [13]: ~ 40%; pharmacokinetics of parent primaquine upon co-administration with fluoxetine [14]: not drastically altered
9 | CN[C@H]1CC[C@@H](c2ccc(Cl)c(Cl)c2)c2ccccc21 [sertraline] | CYP2C9, CYP2C19, CYP2D6, and CYP3A4 |  | 4.35 µM |  | CYP2D6 (weak to moderate), CYP1A2 (weak), CYP2C9 (weak), CYP2C19 (weak), CYP3A4 (weak) | 
10 | COc1ccc(C(CN(C)C)C2(O)CCCCC2)cc1 (stereo not drawn) [venlafaxine] |  | CYP2D6 (weak) | 19.1 µM |  |  | inhibition of primaquine metabolism in hepatocytes [15]: no inhibition of primaquine metabolism
